According to patent US20090044291A1, “DROUGHT-RESISTANT PLANTS AND METHOD FOR PRODUCING THE PLANTS” (D-Helix, priority 2006, published 2009):
Each block holds one compound with its values, some of them ahead of it.

Key:
[1] = target: T1, Arabidopsis ABAR/CHLH (H subunit of Mg-chelatase) (Arabidopsis thaliana, UniProt Q9FNB0); assay: ABA binding assay with purified yeast-expressed ABAR/CHLH; conditions: purified ABAR, 30 nM [3H]ABA, 1 to 1000-fold molar excess of competitor
T1 construct: 6xHis; made in house; host or cells: Pichia methanolica (Pichia Methanolica Expression kit, Invitrogen)
T1 sequence (Q9FNB0 50-1381): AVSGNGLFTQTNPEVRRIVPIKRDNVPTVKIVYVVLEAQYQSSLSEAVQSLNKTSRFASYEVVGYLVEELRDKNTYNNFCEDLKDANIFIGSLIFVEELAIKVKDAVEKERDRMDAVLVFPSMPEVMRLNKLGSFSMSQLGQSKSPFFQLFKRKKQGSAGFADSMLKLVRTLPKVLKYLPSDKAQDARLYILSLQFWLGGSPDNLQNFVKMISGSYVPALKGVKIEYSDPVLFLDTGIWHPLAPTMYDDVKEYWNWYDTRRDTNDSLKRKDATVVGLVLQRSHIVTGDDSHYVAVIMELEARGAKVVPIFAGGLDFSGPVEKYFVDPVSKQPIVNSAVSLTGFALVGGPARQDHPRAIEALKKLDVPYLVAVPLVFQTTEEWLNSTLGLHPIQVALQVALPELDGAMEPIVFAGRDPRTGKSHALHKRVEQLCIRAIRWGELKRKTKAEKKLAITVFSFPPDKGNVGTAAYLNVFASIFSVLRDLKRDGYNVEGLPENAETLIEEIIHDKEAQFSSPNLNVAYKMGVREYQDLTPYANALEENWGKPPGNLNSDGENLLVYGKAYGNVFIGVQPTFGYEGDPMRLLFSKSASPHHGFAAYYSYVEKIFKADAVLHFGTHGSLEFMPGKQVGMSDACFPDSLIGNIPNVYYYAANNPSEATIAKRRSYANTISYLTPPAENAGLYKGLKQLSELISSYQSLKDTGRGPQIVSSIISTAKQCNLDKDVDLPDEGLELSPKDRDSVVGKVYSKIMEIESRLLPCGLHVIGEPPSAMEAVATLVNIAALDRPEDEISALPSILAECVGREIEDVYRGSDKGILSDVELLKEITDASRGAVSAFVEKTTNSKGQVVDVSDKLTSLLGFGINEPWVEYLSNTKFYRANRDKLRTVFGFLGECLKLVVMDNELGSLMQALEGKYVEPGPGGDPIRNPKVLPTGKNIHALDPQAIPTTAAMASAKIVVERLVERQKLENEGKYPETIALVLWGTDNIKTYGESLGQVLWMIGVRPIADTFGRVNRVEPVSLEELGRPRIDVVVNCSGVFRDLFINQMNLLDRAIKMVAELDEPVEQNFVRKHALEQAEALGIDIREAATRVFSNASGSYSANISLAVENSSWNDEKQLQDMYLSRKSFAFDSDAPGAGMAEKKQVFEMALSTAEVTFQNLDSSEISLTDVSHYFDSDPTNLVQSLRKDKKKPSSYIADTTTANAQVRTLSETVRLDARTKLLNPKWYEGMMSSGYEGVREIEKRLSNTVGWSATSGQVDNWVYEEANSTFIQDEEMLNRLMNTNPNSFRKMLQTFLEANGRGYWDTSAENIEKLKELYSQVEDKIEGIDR
Experimental: Full-length ABAR/CHLH coding sequence was PCR-amplified with forward primer 5′-[…]-3′ (SEQ ID NO:30) and reverse primer 5′-[…]-3′ (SEQ ID NO:31). The recombinant ABAR/CHLH was expressed in yeast as a fusion protein with a 6×His (SEQ ID NO:32) tag by using Pichia Methanolica Expression kit (Invitrogen) and the fusion protein was affinity-purified according to manufacturer's instructions.
The ABA-binding activity of ABAR was assayed according to the previously described procedures (Zhang, D. P. et al., Plant physiol. 128:714-725 (2002)) with modifications. The binding medium (medium A) contained 50 mM Tris-HCl (pH 7.0), 2 mM MgCl2, 1 mM CaCl2, and 250 mM mannitol. The medium for extracting the Arabidopsis natural ABAR/CHLH protein (medium B) was the medium A supplemented with 2 mM 1,4-dithiothreitol (DTT), 1 mM phenylmethyl sulfonyl fluoride (PMSF), […] leupeptin, and […] pepstin A but minus 250 mM mannitol. [^3H](+)ABA (American Radiolabeled Chemicals, 2.37×10^12 Bq mmol^−1, purity 98.4%) at 30 nM, or at a step gradient of concentrations from 0 to 70 nM (when analyzing ABA binding kinetics, see FIG. 1a, d1), together with 2 μg purified yeast-expressed ABAR/CHLH protein or 50 μg proteins of the crude extracts from two-week-old Arabidopsis seedlings, was added into the medium A. The total volume for the binding assays was adjusted to 200 μl. The mixtures were incubated at 25° C. for 30 min, and then quickly placed on ice. Following the addition of 100 μl 0.5% (w/v) Dextran T70-coated charcoal (DCC) to remove the free [^3H]ABA by adsorption, the mixtures were maintained on ice for 5 min, and then centrifuged to remove DCC before the radioactivity in the supernatant was counted. The specific binding was determined by the difference between the radioactivity bound to the immuno-purified ABAR protein or crude extracts of Arabidopsis seedlings incubated only with [^3H]ABA (total binding) and radioactivity bound in the presence of 1,000-fold molar excess of unlabeled (+)-ABA (Sigma; non-specific binding. Non-specific binding in all the assays was lower than 10% of the total binding, see FIG. 1a, d1). The unlabeled ABA was added into the incubation medium at the same time with [^3H]ABA. The ABA-binding activity of the crude ABA-binding protein from Arabidopsis seedling was expressed as the number of nanomoles of [^3H]ABA specifically bound per gram of protein, and that of the immuno-purified ABAR protein as the number of moles of [^3H]ABA per mole of protein. The stereo-specificity of the ABA-binding was assayed as described previously (Zhang, D. P. et al., Plant physiol. 128:714-725 (2002)). […] The conditions of incubation were the same as described above (the incubation medium containing 30 nM [^3H]ABA), and the two ABA isomers and (+)-ABA were assayed in the concentrations ranging from 1 to 1000-fold molar excess of [^3H]ABA.

gl1 plants = assay: Treatments with norflurazon and chloramphenicol; format: in vivo, Arabidopsis thaliana
Experimental: The reagent chloramphenicol (Sigma; CP) was diluted from 100 mg/ml stock solutions prepared in ethanol to 150 μg/ml, and equivalent volume of ethanol was included in the chloramphenicol-free-treated controls. For norflurazon (Sigma; Nf) treatment, Nf was diluted from 100 mM stock solutions prepared in DMSO to 3 μM, and equivalent volume of DMSO was included in the Nf-free-treated controls. The 3-week-old seedlings were treated with CP or Nf by irrigation of either 150 μg/ml CP or 3 μM Nf dissolved both in distilled water. Stomatal response to exogenous (±)-ABA was assayed at different time intervals after the application of the reagents, and the amounts of ABAR/CHLH protein were immuno-determined at the same time.
ABA contents in tissues were assayed by radioimmunoassay method as described previously (Zhang, D. P. et al., Plant physiol. 128:714-725 (2002)).

[2] = system: inducible RNAi transgenic plants (ABAR/CHLH expression); assay: Induction of RNAi by 17beta-estradiol in inducible RNAi lines; format: in vivo, Arabidopsis thaliana; conditions: 10 μM 17beta-estradiol
Description: These constructs were introduced in Agrobacterium tumefaciens GV3101 strain and transformed into plants by floral infiltration. The homozygous T3 seeds of the transgenic plants were used for analysis. […] The seeds of the gun4-1, gun5-1 and cch mutants were a generous gift from Dr. J. Chory (The Salk Institute, La Jolla, Calif.). The seeds of the mutants hy1-1 (ABRC#: CS67), hy2-1 (CS68) and chl-2 (CS3362) were obtained from the Arabidopsis Biological Resource Center (ABRC). Except for the mutants hy1-1 and hy2-1 with the ecotype Ler as background, all the other mutants were isolated from the ecotype Columbia. Plants were grown in a growth chamber at 20-21° C. on Murashige-Skoog (MS) medium at about 80 μmol photons m^−2 s^−1, or in compost soil at about 120 μmol photons m^−2 s^−1 over a 16-h photoperiod.
For the treatment of seedlings of the inducible RNAi lines with 17beta-estradiol (Sigma) to induce down-regulation of ABAR/CHLH expression, 17beta-estradiol was diluted from 10 mM stock solution prepared in dimethyl sulfoxide (DMSO) to 10 μM, and equivalent volume of DMSO was included in the 17beta-estradiol-free-treated controls. […] The amounts of ABAR/CHLH protein were also determined at the same time by immunoblotting. […] The expression of ABAR/CHLH and some ABA-responsive genes was assessed by real-time PCR.

[3] = target: T2, natural ABAR/CHLH protein (Arabidopsis thaliana, UniProt Q9FNB0); assay: Pull-down assay with anti-ABAR serum; format: binding; conditions: 30 nM [3H](+)ABA
T2 construct: 50 μg proteins of the crude extracts from two-week-old Arabidopsis seedlings; from tissue; host or cells: crude extracts of two-week-old Arabidopsis seedlings / leaves of gl1 (WT), RNAi line 12 and overexpressor line 1
T2 sequence (Q9FNB0 50-1381): T1 sequence (Q9FNB0 50-1381)
Experimental: The pull down assay was done as follows to detect ABA binding to the natural ABAR/CHLH protein. Total proteins were extracted from two-week-old Arabidopsis seedlings with the medium C composed of the medium B supplemented with 250 mM mannitol. The crude extracts (3 mg total proteins) was incubated by gently shaking in the medium C (400 μl) containing 30 nM [^3H](+)ABA at 4° C. for 2 h, and the anti-ABAR^N serum (10 μg, described below) was added into the medium for a further incubation at 4° C. for 2 h, and then the medium was supplemented by 100 μl 25% (v/v) protein A-agarose (Santa Cruz) for a final incubation at 4° C. for 2 h. Following the incubation, protein A-agarose was recovered by a brief centrifugation and washed with 1 ml medium C. The pellets were resuspended in […] water and mixed with scintillation fluid before the radioactivity (d.p.m., disintegrations per minute) of the bound [^3H](+)ABA was measured.
Three independent control experiments were performed for the pull down assays. A control was done by addition of the same amounts of mouse preimmune serum instead of the antiserum to the medium of the above-described pull down assay in the extracts from the leaves of wild-type plants. […]

Compound: CC1=CC(=O)CC(C)(C)C1(O)/C=C/C(C)=C\C(=O)O (single isomer, unassigned; (-)) [(−)-ABA]
displacement of [3H](+)-ABA binding [1]: not

displacement of [3H](+)-ABA binding [1]: not
Compound: CC(C=CC1(O)C(C)=CC(=O)CC1(C)C)=CC(=O)O (stereo not drawn) [trans-ABA]

Compound: CNc1cnn(-c2cccc(C(F)(F)F)c2)c(=O)c1Cl [norflurazon]
ABA contents (gl1 plants; Nf-treated plants, 3 μM by irrigation): remained unchanged

Compound: O=C(N[C@H](CO)[C@H](O)c1ccc([N+](=O)[O-])cc1)C(Cl)Cl [chloramphenicol]
ABA contents (gl1 plants; CP-treated plants, 150 μg/ml by irrigation): remained unchanged | ABAR levels (gl1 plants; after CP treatment (FIG. 9)): decrease | stomatal movement response to ABA (gl1 plants; after CP treatment (FIG. 9), 10 μM (±)-ABA): ABA-insensitive

Compound: C[C@]12CC[C@@H]3c4ccc(O)cc4CC[C@H]3[C@@H]1CC[C@@H]2O [17beta-estradiol]
ABAR transcript and product / ABAR levels [2]: significant decline | ABAR transcript and product / ABAR levels ([2]; listed as 17beta-oestradiol): decrease

displacement of [3H](+)-ABA binding [1]: efficient displacement | displacement of [3H]ABA / stereospecificity of pulled-down ABA-binding activity [3]: highly stereospecific
Compound: (+)-ABA
